Experimental data reported in patent publication US20220390432A1, “METHODS OF CHARACTERIZING AND UTILIZING AGENT-CONDENSATE INTERACTIONS” (Whitehead Institute for Biomedical Research, priority 2019, published 2022).
Entries after “also recorded” stand apart in the source; their conditions may differ.

Experiments:
MED1 aromatic mutant = biological target: T1, MED1 aromatic mutant (Homo sapiens, UniProt Q15648, F1031A/F1273A/F1351A/F1564A/F657A/F708A/F713A/F724A/F821A/F826A/F858A/F859A/F865A/F878A/F883A/F895A/F898A/F920A/F931A/W1533A/Y1083A/Y1132A/Y1431A/Y1456A/Y1476A/Y1492A/Y661A/Y752A/Y835A/Y882A); assay: In vitro droplet assay with MED1 aromatic mutant; type: binding; settings: 10% PEG, 125 mM NaCl, 10 μM protein, 5 μM small molecule
T1 construct: MED1—aromatic mutant amino acids 600-1581, all aromatic residues changed to alanine; 6xHis (N); made in house; host or cells: LOBSTR cells (E. coli)
Experimental: MED1—aromatic mutant amino acids 600-1581, all aromatic residues changed to alanine.
Recombinant BFP, GFP, or mCherry fusion proteins were concentrated and desalted to an appropriate protein concentration and 125 mM NaCl using Amicon Ultra centrifugal filters (30K MWCO, Millipore). Recombinant protein was added too. […] The protein solution was immediately loaded onto glass bottom 384 well plate (Cellvis P384-1.5H-N) and imaged with an Andor confocal microscope with a 150× objective. Unless indicated, images presented are of droplets settled on the glass coverslip.
To analyze in vitro droplet experiments, custom Python scripts using the scikit-image package were written to identify droplets and characterize their size, shape and intensity. […] After segmentation, mean intensity for each droplet was calculated while excluding pixels near the phase interface, and background-corrected by subtracting intensity of dark images of droplet formation buffer only. Droplets identified in the channel of the fluorescent protein from ten independent fields of view were quantified for each experiment. The maximum intensity of signal within the droplets was calculated for each channel, the maximum intensity in the drug channel was termed “maximum drug intensity”. […]

[1] = tested on: DNA in MED1 or HP1α droplets; assay: Cisplatin-DNA engagement assay; type: biochemical; settings: size-shift on a bioanalyzer; cisplatin 0-2 mM
Experimental: MED1-IDR-BFP and HP1a-BFP droplets were formed by mixing 10 μM protein with the droplet formation buffer containing 50 mM Tris-HCl pH 7.5, 100 mM NaCl, 10% PEG 8000, 10% glycerol, 1 mM DTT and 5 ng/ul DNA in a 10 μl reaction volume. The droplet reactions were incubated for 30 min at RT. Next, increasing concentrations of activated Cisplatin (0, 0.5, 0.75, 1, 1.5, and 2 mM) were added to the droplet reactions and incubated for another 30 min at RT. The reactions are then treated with 1 μl of Proteinase K (Invitrogen, 20 mg/ml) for 4 hr at 55° C. Platination of DNA was visualized by size-shift on a bioanalyzer.

[2] = tested on: platinated DNA in HCT116 cells; assay: Cisplatin/condensate co-immunofluorescence; type: cell-based, human; settings: HCT116, 50 μM cisplatin for 6 hours
Experimental: HCT116 cells were plated in 24-well plate at 50 k cells per well to yield 100 k cells after 21 hours (doubling time of HCTs). Cells were permeabilized using a solution of Tx100 in media at 0.55 pmol/cell for 12 minutes at 37° C. Cells were then washed with 500 ul media and treated with 500 ul of 50 uM cisplatin in media for 6 hours. After 6 hours, the cells were washed once with room temperature PBS and then fixed with 500 uL 4% formaldehyde in PBS for 12 min at room temperature. The cells were then washed 3 more times with PBS. Coverslips were put into a humidifying chamber or stored at 4° C. in PBS. Permeabilization of cells were performed using 0.5% Triton X-100 (Sigma Aldrich, X100) in PBS for 10 minutes followed by three PBS washes. Cells were blocked with 4% IgG-free Bovine Serum Albumin, BSA, (VWR, 102643-516) for 30 minutes and the primary antibody was added at a concentration of 1:500 in PBS for 4-16 hours. […]
For the analysis of co-immunofluorescence data, custom python scripts were written to both process and analyze the 3D image data from IF and DAPI channels. Nuclei were detected using the Triangle thresholding method and a nuclear mask was applied the IF channels. […] Percentage of cisplatin overlap was calculated by the number of defined nuclear cisplatin puncta that overlapped with the protein of interest puncta divided by the total number of nuclear cisplatin puncta.

[3] = tested on: nuclear condensates in HCT116 cells; assay: Cisplatin treatment followed by live cell imaging, condensate score; type: cell-based, human; settings: HCT116, 50 μM cisplatin, up to 12 hours
Experimental: HCT116 cells with the indicated GFP knock-in were plated at 35 k per well of a glass bottom 8-well chamber slide. Following incubation at 37° C. overnight, cells were treated with 50 uM cisplatin in DMEM or a 1:1000 dilution of DMSO for 12 hours. […] For representative images of each of the six tagged lines treated with vehicle or 50 μM cisplatin, cells were imaged on the Zeiss LSM 880 confocal microscope with Airyscan detector with 63× objective at 37° C. Nuclei were segmented from images of treated cells by custom Python scripts using the scikit-image, open-cv, and […] Python packages. Nuclei were segmented by median filter, thresholding, separated by the watershed algorithm, and labeled by the scikit-image label function. […] A grey-level co-occurrence matrix (GLCM) was then generated from the projected signal, and the 'correlation' texture property from the GLCM was calculated per nucleus. One-way ANOVA followed by Sidak's multiple comparisons test was performed on the correlation values across conditions using GraphPad Prism version 8.2.0 for Mac (www.graphpad.com). Finally, to derive the condensation score, these values were subtracted from 1.

[4] = tested on: MED1 genomic occupancy in HCT116 cells; assay: MED1 ChIP-seq in HCT116 cells; type: cell-based, human; settings: 50 μM cisplatin for 6 hours

Question: Which “partitioning into MED1 aromatic mutant droplets” value (MED1 aromatic mutant) does the source give for `N.N.[Cl][Pt][Cl]` [cisplatin] here?
Answer: no longer partitioned; also recorded: substantially reduced

Question: What about the “DNA platination in MED1 versus HP1α condensates” value [1] of the same compound?
Answer: more efficiently platinated in MED1 condensates than in HP1α condensates

Question: And the “colocalization of platinated DNA with nuclear condensates” value [2]?
Answer: frequently colocalized with MED1 condensates, but not with HP1α or FIB1 condensates

Question: And the “effect on nuclear condensates in live cells” value [3]?
Answer: selective and progressive reduction in MED1 condensates; also recorded: Dissolution of MED1 condensates

Question: What about the “effect on nuclear condensates in live cells” value ([3]; listed as Cisplatin) of the same compound?
Answer: specifically disrupts MED1 and BRD4 condensates

Question: And the “MED1 ChIP-seq signal after cisplatin” value [4]?
Answer: preferential loss of MED1 ChIP-seq signal at super-enhancers; also recorded: reduced
